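Five compound concentrations were applied to cells in 96-well plates for 48 hours; endpoints were derived by simple linear interpolation of the resulting dose-response curve. Abbreviation: GI50, concentration required for 50% inhibition of growth.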 Active and inactive are the calls of the source. Cut-off read from the data, not from the text of the source: active = GI50 up to about 1.1 µM and inactive = higher.
How the values were obtained:
Assay in all cases: inhibition of tumour cell growth, NCI panel, 48 h
786-0 = system: 786-0
A498 = system: A498
A549 = system: A549
ACHN = system: ACHN
CAKI-1 = system: CAKI-1
CCRF-CEM = system: CCRF-CEM
COLO 205 = system: COLO 205
DLD-1 = system: DLD-1
DMS-114 = system: DMS-114
HCT-116 = system: HCT-116
HCT-15 = system: HCT-15
HL-60 = system: HL-60
HOP-18 = system: HOP-18
HOP-62 = system: HOP-62
HOP-92 = system: HOP-92
HT-29 = system: HT-29
IGROV-1 = system: IGROV-1
K562 = system: K562
KM-20L2 = system: KM-20L2
KM12 = system: KM12
LOX IMVI = system: LOX IMVI
LXFL 529 = system: LXFL 529
M14 = system: M14
M19-MEL = system: M19-MEL
MOLT-4 = system: MOLT-4
Malme-3M = system: Malme-3M
NCI-H226 = system: NCI-H226
NCI-H23 = system: NCI-H23
NCI-H460 = system: NCI-H460
NCI-H522 = system: NCI-H522
OVCAR-3 = system: OVCAR-3
OVCAR-4 = system: OVCAR-4
OVCAR-5 = system: OVCAR-5
OVCAR-8 = system: OVCAR-8
RPMI-8226 = system: RPMI-8226
RXF 631 = system: RXF 631
SF-268 = system: SF-268
SF-295 = system: SF-295
SF-539 = system: SF-539
SK-MEL-28 = system: SK-MEL-28
SK-MEL-2 = system: SK-MEL-2
SK-MEL-5 = system: SK-MEL-5
SK-OV-3 = system: SK-OV-3
SN12C = system: SN12C
SNB-19 = system: SNB-19
SNB-75 = system: SNB-75
SNB-78 = system: SNB-78
SR = system: SR
SW-620 = system: SW-620
TK-10 = system: TK-10
U-251 = system: U-251
UACC-257 = system: UACC-257
UACC-62 = system: UACC-62
UO-31 = system: UO-31
EKVX = system: EKVX
HCC 2998 = system: HCC 2998
RXF 393 = system: RXF 393
XF498 = system: XF498
DMS-273 = system: DMS-273

Measured: GI50

O=C(Nc1c(O)[nH]c(=S)[nH]c1=O)c1ccccn1
inactive: 786-0 > 100 µM | A498 > 100 µM | A549 > 100 µM | ACHN > 100 µM | CAKI-1 > 100 µM | CCRF-CEM > 100 µM | COLO 205 > 100 µM | DLD-1 > 100 µM | DMS-114 > 100 µM | HCT-116 > 100 µM | HL-60 > 100 µM | HOP-18 > 100 µM | HOP-62 > 100 µM | HOP-92 39.1 µM | HT-29 > 100 µM | IGROV-1 > 100 µM | K562 > 100 µM | KM-20L2 > 100 µM | KM12 > 100 µM | LOX IMVI > 100 µM | LXFL 529 > 100 µM | M14 > 100 µM | M19-MEL > 100 µM | MOLT-4 > 100 µM | Malme-3M > 100 µM | NCI-H226 > 100 µM | NCI-H23 > 100 µM | NCI-H460 > 100 µM | NCI-H522 > 100 µM | OVCAR-3 > 100 µM | OVCAR-4 > 100 µM | OVCAR-5 > 100 µM | OVCAR-8 > 100 µM | RPMI-8226 > 100 µM | RXF 631 > 100 µM | SF-268 > 100 µM | SF-295 > 100 µM | SF-539 > 100 µM | SK-MEL-28 > 100 µM | SK-MEL-2 > 100 µM | SK-MEL-5 > 100 µM | SK-OV-3 > 100 µM | SN12C > 100 µM | SNB-19 > 100 µM | SNB-75 > 100 µM | SNB-78 > 100 µM | SR > 100 µM | SW-620 > 100 µM | TK-10 > 100 µM | U-251 > 100 µM | UACC-257 > 100 µM | UACC-62 > 100 µM | UO-31 > 100 µM
> 100 µM: HCT-15

COCCOCOC(C)(C)[C@H](CCO)O[Si](c1ccccc1)(c1ccccc1)C(C)(C)C
4.68 µM: HCT-15
inactive: A498 16.7 µM | A549 6.32 µM | ACHN 5.68 µM | COLO 205 15.9 µM | DLD-1 9.64 µM | EKVX 13.5 µM | HCC 2998 4.68 µM | HCT-116 3.67 µM | HL-60 2.39 µM | HOP-18 17.5 µM | HOP-92 10.6 µM | HT-29 8.61 µM | IGROV-1 9.14 µM | KM-20L2 11.8 µM | KM12 11.5 µM | LOX IMVI 8.36 µM | LXFL 529 9.95 µM | M14 9.89 µM | M19-MEL 11.7 µM | MOLT-4 3.54 µM | Malme-3M 14.3 µM | NCI-H23 15.7 µM | NCI-H460 5.15 µM | NCI-H522 4.57 µM | OVCAR-3 10.2 µM | OVCAR-5 14.1 µM | OVCAR-8 10.4 µM | RPMI-8226 6.17 µM | RXF 393 5.3 µM | RXF 631 5.85 µM | SF-268 7.13 µM | SF-295 5.74 µM | SF-539 14.1 µM | SK-MEL-28 14.9 µM | SK-MEL-2 > 10 µM | SK-MEL-5 13.4 µM | SK-OV-3 12.5 µM | SN12C 3.34 µM | SNB-19 13.2 µM | SNB-75 8.11 µM | SNB-78 16.3 µM | SR 3.25 µM | SW-620 11.2 µM | TK-10 10.9 µM | U-251 11 µM | UACC-257 8.77 µM | UACC-62 12 µM | UO-31 13 µM | XF498 3.18 µM

CC(=O)c1c2c(cc3c1CC1(C3)Cc3cc4c(c(C(C)=O)c3C1)CCC4)CCC2
inactive: 786-0 > 100 µM | A549 > 100 µM | ACHN > 100 µM | CAKI-1 > 100 µM | CCRF-CEM > 100 µM | COLO 205 > 100 µM | DLD-1 > 100 µM | DMS-114 > 100 µM | HCC 2998 > 100 µM | HCT-116 > 100 µM | HL-60 19.3 µM | HOP-18 > 100 µM | HOP-62 > 100 µM | HOP-92 > 100 µM | HT-29 > 100 µM | IGROV-1 > 100 µM | K562 38 µM | KM12 > 100 µM | LOX IMVI > 100 µM | LXFL 529 > 100 µM | M14 > 100 µM | M19-MEL > 100 µM | MOLT-4 73.1 µM | Malme-3M 40.3 µM | NCI-H23 > 100 µM | NCI-H460 > 100 µM | NCI-H522 > 100 µM | OVCAR-3 > 100 µM | OVCAR-4 > 100 µM | OVCAR-5 > 100 µM | OVCAR-8 > 100 µM | RXF 393 > 100 µM | RXF 631 > 100 µM | SF-268 > 100 µM | SF-295 > 100 µM | SF-539 > 100 µM | SK-MEL-28 > 100 µM | SK-MEL-5 > 100 µM | SN12C > 100 µM | SNB-19 > 100 µM | SNB-75 82.4 µM | SNB-78 > 100 µM | SR > 100 µM | SW-620 > 100 µM | TK-10 > 100 µM | U-251 > 100 µM | UACC-257 > 100 µM | UACC-62 > 100 µM | UO-31 > 100 µM | XF498 > 100 µM

O=c1cc2ccccc2nn1Cc1cccc(Cl)c1
inactive: 786-0 > 100 µM | A498 > 100 µM | A549 49.8 µM | ACHN > 100 µM | CAKI-1 > 100 µM | CCRF-CEM 71.1 µM | COLO 205 > 100 µM | DLD-1 > 100 µM | DMS-114 66.4 µM | DMS-273 85.9 µM | EKVX > 100 µM | HCC 2998 > 100 µM | HCT-116 78.9 µM | HOP-18 > 100 µM | HOP-62 > 100 µM | HOP-92 > 100 µM | HT-29 > 100 µM | IGROV-1 > 100 µM | K562 32.4 µM | KM-20L2 > 100 µM | KM12 > 100 µM | LOX IMVI > 100 µM | M14 > 100 µM | M19-MEL > 100 µM | Malme-3M > 100 µM | NCI-H226 57.1 µM | NCI-H23 57.3 µM | NCI-H460 > 100 µM | OVCAR-3 62.2 µM | OVCAR-4 > 100 µM | OVCAR-5 > 100 µM | OVCAR-8 73.3 µM | RPMI-8226 30.7 µM | RXF 631 > 100 µM | SF-268 90.2 µM | SF-295 > 100 µM | SF-539 > 100 µM | SK-MEL-28 98.9 µM | SK-MEL-2 > 100 µM | SK-MEL-5 37.8 µM | SK-OV-3 > 100 µM | SN12C 97.9 µM | SNB-19 > 100 µM | SNB-75 32.7 µM | SNB-78 > 100 µM | SW-620 92.5 µM | TK-10 > 100 µM | U-251 > 100 µM | UACC-257 > 100 µM | UACC-62 > 100 µM | UO-31 37.5 µM | XF498 18.8 µM
99.5 µM: HCT-15

O=C1C(c2ccc(Cl)cc2)=[N+]([O-])c2ccccc21
11.4 µM: HCT-15
inactive: 786-0 16.9 µM | A498 24.7 µM | A549 17.5 µM | ACHN 15.2 µM | CCRF-CEM 4.36 µM | COLO 205 17.7 µM | DLD-1 13.8 µM | DMS-114 4.07 µM | EKVX 15.3 µM | HCC 2998 > 100 µM | HCT-116 14.4 µM | HL-60 3.3 µM | HOP-18 21.8 µM | HOP-62 29.4 µM | HT-29 19.8 µM | IGROV-1 18.1 µM | K562 13.4 µM | KM-20L2 25.4 µM | KM12 15.2 µM | LOX IMVI 14 µM | LXFL 529 5.36 µM | M14 14.2 µM | M19-MEL > 100 µM | MOLT-4 12.4 µM | Malme-3M 17.8 µM | NCI-H226 19.1 µM | NCI-H23 16.1 µM | NCI-H460 18.8 µM | NCI-H522 10 µM | OVCAR-3 13.6 µM | OVCAR-5 22.9 µM | OVCAR-8 10.7 µM | RPMI-8226 14.9 µM | RXF 393 11 µM | RXF 631 23.6 µM | SF-268 15.4 µM | SF-295 12.1 µM | SF-539 21 µM | SK-MEL-28 14.9 µM | SK-MEL-2 23.1 µM | SK-MEL-5 13.6 µM | SK-OV-3 > 100 µM | SN12C 18.1 µM | SNB-19 23.3 µM | SNB-75 21.4 µM | SR 20.2 µM | SW-620 39.7 µM | TK-10 16.3 µM | U-251 16.7 µM | UACC-257 16 µM | UACC-62 18.3 µM | UO-31 > 100 µM | XF498 20.4 µM
